Measurements reported in the supplement of paper PMC10733146.

Assays:
Experiment in all cases: viability relative to DMSO control (fraction); higher = less drug effect (more viable cells)
Details in all cases: 48 h
[1] = system: primary AML patient cells (S012)
Outline: (§1)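 Viability is given as CellTiter-Glo luminescence relative to the median of 16 inner DMSO wells. Fresh or cryopreserved primary mononuclear tumour cells from blood, bone marrow (both Ficoll-isolated) or processed lymph node were plated at 4 × 10^4 cells per well in 384-well plates against five pre-plated compound concentrations, one well each. Incubation lasted 48 h at 37 °C and 5% CO2 in RPMI-1640 with penicillin/streptomycin, L-glutamine and human serum.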

[2] = system: primary AML patient cells (S002)
Outline: as §1

[3] = system: primary AML patient cells (S079)
Outline: as §1

[4] = system: primary MCL patient cells (S053)
Outline: as §1

[5] = system: primary AML patient cells (S072)
Outline: as §1

[6] = system: primary T-PLL patient cells (S008)
Outline: as §1

[7] = system: primary AML patient cells (S017)
Outline: as §1

[8] = system: primary BL patient cells (S005)
Outline: as §1

[9] = system: primary AML patient cells (S081)
Outline: as §1

[10] = system: primary MCL patient cells (S068)
Outline: as §1

[11] = system: primary FL patient cells (S022)
Outline: as §1

[12] = system: primary AML patient cells (S056)
Outline: as §1

[13] = system: primary AML patient cells (S009)
Outline: as §1

[14] = system: primary ALL patient cells (S048)
Outline: as §1

[15] = system: primary AML patient cells (S055)
Outline: as §1

[16] = system: primary AML patient cells (S006)
Outline: as §1

[17] = system: primary AML patient cells (S025)
Outline: as §1

[18] = system: primary CLL patient cells (S043)
Outline: as §1

[19] = system: primary AML patient cells (S021)
Outline: as §1

[20] = system: primary MCL patient cells (S063)
Outline: as §1

## CC1(COc2ccc3c(c2)ncn3-c2ccc3cccc(N4CCC(N)CC4)c3n2)COC1 [Crenolanib]
[1]; 0.016 µM
  viability: 0.935
[1]; 0.08 µM
  viability: 0.964
[1]; 0.4 µM
  viability: 0.978
[1]; 2 µM
  viability: 0.959
[1]; 10 µM
  viability: 0.528
[2]; 0.016 µM
  viability: 0.956
[2]; 0.08 µM
  viability: 1.13
[2]; 0.4 µM
  viability: 1.3
[2]; 2 µM
  viability: 1.5
[2]; 10 µM
  viability: 0.426
[3]; 0.016 µM
  viability: 1.02
[3]; 0.08 µM
  viability: 1.17
[3]; 0.4 µM
  viability: 0.996
[3]; 2 µM
  viability: 0.889
[3]; 10 µM
  viability: 0.0548
[4]; 0.016 µM
  viability: 1.03
[4]; 0.08 µM
  viability: 1.07
[4]; 0.4 µM
  viability: 1.12
[4]; 2 µM
  viability: 0.963
[4]; 10 µM
  viability: 0.348
[5]; 0.016 µM
  viability: 0.891
[5]; 0.08 µM
  viability: 0.982
[5]; 0.4 µM
  viability: 0.793
[5]; 2 µM
  viability: 0.742
[5]; 10 µM
  viability: 0.0532
[6]; 0.016 µM
  viability: 0.989
[6]; 0.08 µM
  viability: 1.04
[6]; 0.4 µM
  viability: 1.06
[6]; 2 µM
  viability: 1.07
[6]; 10 µM
  viability: 0.107
[7]; 0.016 µM
  viability: 1.05
[7]; 0.08 µM
  viability: 1.09
[7]; 0.4 µM
  viability: 1.12
[7]; 2 µM
  viability: 1.16
[7]; 10 µM
  viability: 0.109
[8]; 0.016 µM
  viability: 0.9
[8]; 0.08 µM
  viability: 0.959
[8]; 0.4 µM
  viability: 0.896
[8]; 2 µM
  viability: 0.913
[8]; 10 µM
  viability: 0.414
[9]; 0.016 µM
  viability: 0.948
[9]; 0.08 µM
  viability: 1.09
[9]; 0.4 µM
  viability: 0.953
[9]; 2 µM
  viability: 1.07
[9]; 10 µM
  viability: 0.0325
[10]; 0.016 µM
  viability: 0.812
[10]; 0.08 µM
  viability: 0.846
[10]; 0.4 µM
  viability: 0.572
[10]; 2 µM
  viability: 0.417
[10]; 10 µM
  viability: 0.031
[11]; 0.016 µM
  viability: 0.991
[11]; 0.08 µM
  viability: 1.07
[11]; 0.4 µM
  viability: 0.966
[11]; 2 µM
  viability: 0.743
[11]; 10 µM
  viability: 0.0846
[12]; 0.016 µM
  viability: 0.613
[12]; 0.08 µM
  viability: 1.35
[12]; 0.4 µM
  viability: 0.631
[12]; 2 µM
  viability: 0.73
[12]; 10 µM
  viability: 0.157
[13]; 0.016 µM
  viability: 0.926
[13]; 0.08 µM
  viability: 0.979
[13]; 0.4 µM
  viability: 0.921
[13]; 2 µM
  viability: 2.2
[13]; 10 µM
  viability: 0.301
[14]; 0.016 µM
  viability: 0.85
[14]; 0.08 µM
  viability: 0.851
[14]; 0.4 µM
  viability: 0.797
[14]; 2 µM
  viability: 0.554
[14]; 10 µM
  viability: 0.418
[15]; 0.016 µM
  viability: 1.12
[15]; 0.08 µM
  viability: 1.08
[15]; 0.4 µM
  viability: 1.11
[15]; 2 µM
  viability: 1.12
[15]; 10 µM
  viability: 0.381
[16]; 0.016 µM
  viability: 0.559
[16]; 0.08 µM
  viability: 0.649
[16]; 0.4 µM
  viability: 0.889
[16]; 2 µM
  viability: 0.977
[16]; 10 µM
  viability: 0.333
[17]; 0.016 µM
  viability: 0.983
[17]; 0.08 µM
  viability: 1.12
[17]; 0.4 µM
  viability: 1.29
[17]; 2 µM
  viability: 1.29
[17]; 10 µM
  viability: 0.173
[18]; 0.016 µM
  viability: 0.963
[18]; 0.08 µM
  viability: 1.15
[18]; 0.4 µM
  viability: 1.17
[18]; 2 µM
  viability: 1.06
[18]; 10 µM
  viability: 0.0329
[19]; 0.016 µM
  viability: 1.04
[19]; 0.08 µM
  viability: 1.15
[19]; 0.4 µM
  viability: 1.17
[19]; 2 µM
  viability: 0.984
[19]; 10 µM
  viability: 0.453
[20]; 0.016 µM
  viability: 1.08
[20]; 0.08 µM
  viability: 1.13
[20]; 0.4 µM
  viability: 0.958
[20]; 2 µM
  viability: 0.83
[20]; 10 µM
  viability: 0.0336

## COc1ccc(C2=N[C@@H](c3ccc(Cl)cc3)[C@@H](c3ccc(Cl)cc3)N2C(=O)N2CCNC(=O)C2)c(OC(C)C)c1 [Nutlin-3a]
[1]; 0.032 µM
  viability: 0.945
[1]; 0.16 µM
  viability: 0.946
[1]; 0.8 µM
  viability: 1.03
[1]; 4 µM
  viability: 1.01
[1]; 20 µM
  viability: 0.883
[2]; 0.032 µM
  viability: 0.891
[2]; 0.16 µM
  viability: 0.91
[2]; 0.8 µM
  viability: 0.726
[2]; 4 µM
  viability: 0.401
[2]; 20 µM
  viability: 0.268
[3]; 0.032 µM
  viability: 1.02
[3]; 0.16 µM
  viability: 1.01
[3]; 0.8 µM
  viability: 0.972
[3]; 4 µM
  viability: 0.868
[3]; 20 µM
  viability: 0.61
[4]; 0.032 µM
  viability: 1.01
[4]; 0.16 µM
  viability: 0.896
[4]; 0.8 µM
  viability: 0.738
[4]; 4 µM
  viability: 0.433
[4]; 20 µM
  viability: 0.282
[5]; 0.032 µM
  viability: 1.04
[5]; 0.16 µM
  viability: 0.956
[5]; 0.8 µM
  viability: 0.875
[5]; 4 µM
  viability: 0.78
[5]; 20 µM
  viability: 0.693
[6]; 0.032 µM
  viability: 1
[6]; 0.16 µM
  viability: 0.972
[6]; 0.8 µM
  viability: 0.963
[6]; 4 µM
  viability: 0.583
[6]; 20 µM
  viability: 0.205
[7]; 0.032 µM
  viability: 1.05
[7]; 0.16 µM
  viability: 0.979
[7]; 0.8 µM
  viability: 1.03
[7]; 4 µM
  viability: 1.03
[7]; 20 µM
  viability: 1.08
[8]; 0.032 µM
  viability: 0.962
[8]; 0.16 µM
  viability: 0.887
[8]; 0.8 µM
  viability: 1.01
[8]; 4 µM
  viability: 0.91
[8]; 20 µM
  viability: 0.827
[9]; 0.032 µM
  viability: 0.997
[9]; 0.16 µM
  viability: 0.979
[9]; 0.8 µM
  viability: 1.03
[9]; 4 µM
  viability: 1.02
[9]; 20 µM
  viability: 0.783
[10]; 0.032 µM
  viability: 1.17
[10]; 0.16 µM
  viability: 0.988
[10]; 0.8 µM
  viability: 0.987
[10]; 4 µM
  viability: 0.929
[10]; 20 µM
  viability: 0.949
[11]; 0.032 µM
  viability: 0.954
[11]; 0.16 µM
  viability: 0.936
[11]; 0.8 µM
  viability: 1.02
[11]; 4 µM
  viability: 0.881
[11]; 20 µM
  viability: 0.621
[12]; 0.032 µM
  viability: 1.1
[12]; 0.16 µM
  viability: 1.07
[12]; 0.8 µM
  viability: 0.706
[12]; 4 µM
  viability: 0.425
[12]; 20 µM
  viability: 0.45
[13]; 0.032 µM
  viability: 0.875
[13]; 0.16 µM
  viability: 0.89
[13]; 0.8 µM
  viability: 0.744
[13]; 4 µM
  viability: 0.621
[13]; 20 µM
  viability: 0.493
[14]; 0.032 µM
  viability: 0.97
[14]; 0.16 µM
  viability: 0.995
[14]; 0.8 µM
  viability: 0.881
[14]; 4 µM
  viability: 0.506
[14]; 20 µM
  viability: 0.056
[15]; 0.032 µM
  viability: 1.03
[15]; 0.16 µM
  viability: 1.02
[15]; 0.8 µM
  viability: 0.977
[15]; 4 µM
  viability: 0.911
[15]; 20 µM
  viability: 0.306
[16]; 0.032 µM
  viability: 1.01
[16]; 0.16 µM
  viability: 0.917
[16]; 0.8 µM
  viability: 0.694
[16]; 4 µM
  viability: 0.136
[16]; 20 µM
  viability: 0.0568
[17]; 0.032 µM
  viability: 0.961
[17]; 0.16 µM
  viability: 0.947
[17]; 0.8 µM
  viability: 0.788
[17]; 4 µM
  viability: 0.346
[17]; 20 µM
  viability: 0.0996
[18]; 0.032 µM
  viability: 1.05
[18]; 0.16 µM
  viability: 1.01
[18]; 0.8 µM
  viability: 1.04
[18]; 4 µM
  viability: 0.894
[18]; 20 µM
  viability: 0.322
[19]; 0.032 µM
  viability: 0.972
[19]; 0.16 µM
  viability: 0.978
[19]; 0.8 µM
  viability: 0.73
[19]; 4 µM
  viability: 0.328
[19]; 20 µM
  viability: 0.2
[20]; 0.032 µM
  viability: 0.998
[20]; 0.16 µM
  viability: 0.985
[20]; 0.8 µM
  viability: 0.984
[20]; 4 µM
  viability: 0.608
[20]; 20 µM
  viability: 0.215
